The record followed here is ChEMBL document CHEMBL1135759, “Exploring the role of bromine at C(10) of (+)-4-[2-[4-(8-chloro-3,10-dibromo- 6,11-dihydro-5H-benzo[5,6]cyclohepta[1,2-b]pyridin-11(R)-yl)-1-piperidinyl]-2- oxoethyl]-1-piperidinecarboxamide (Sch-66336): the discovery of indolocycloheptapyridine inhibitors of farnesyl protein transferase” (J Med Chem, 2002).

The structures appear in SMILES notation.

The IC50 is the concentration at which inhibition is half-maximal. Higher therefore signals lower potency.

In this experiment the target is Protein farnesyltransferase (Homo sapiens, UniProt P49354+P49356). The experiment in a line: Inhibition of Protein farnesyltransferase in an enzyme assay with His6-H-Ras-CVLS.
`O=C(Cc1cc[n+]([O-])cc1)N1CCC([C@H]2c3ncccc3CCc3cc(Cl)cc(Br)c32)CC1` displayed an IC50 of 0.019 µM. This lies in the double-digit nanomolar range.
The result for `Cc1c[nH]c2c(Cl)cc3c(c12)[C@@H](C1CCN(C(=O)Cc2cc[n+]([O-])cc2)CC1)c1ncccc1CC3` (stereo in doubt; (+)-10a) reads 0.0074 µM.
`O=C(Cc1cc[n+]([O-])cc1)N1CCC([C@@H]2c3ccc(Cl)cc3CCc3cc(Br)cnc32)CC1` yielded an IC50 of 0.034 µM.
As for `CCCCc1c[nH]c2c(Cl)cc3c(c12)[C@@H](C1CCN(C(=O)Cc2cc[n+]([O-])cc2)CC1)c1ncccc1CC3` (stereo in doubt; (-)-10c), the figure is greater than 0.18 µM; as for `Cc1c[nH]c2c(Cl)cc3c(c12)[C@@H](C1CCN(C(=O)Cc2cc[n+]([O-])cc2)CC1)c1ncccc1CC3` (stereo in doubt; (-)-10a), 0.028 µM.
`Cc1cn(C)c2c(Cl)cc3c(c12)C(C1CCN(C(=O)Cc2cc[n+]([O-])cc2)CC1)c1ncccc1CC3` (single isomer, unassigned; (+)) had a 50% inhibitory concentration (IC50) greater than 0.19 µM.
As for `CCCCc1c[nH]c2c(Cl)cc3c(c12)[C@@H](C1CCN(C(=O)Cc2cc[n+]([O-])cc2)CC1)c1ncccc1CC3` (stereo in doubt; (+)-10c), the figure is 0.069 µM; as for `CCCc1c[nH]c2c(Cl)cc3c(c12)[C@@H](C1CCN(C(=O)Cc2cc[n+]([O-])cc2)CC1)c1ncccc1CC3` (stereo in doubt; (+)-10b), 0.065 µM; as for `O=C(Cc1cc[n+]([O-])cc1)N1CCC(C2c3ncccc3CCc3cc(Cl)c4[nH]ccc4c32)CC1` (single isomer, unassigned; (+)), 0.042 µM.
As for `CCCc1c[nH]c2c(Cl)cc3c(c12)[C@@H](C1CCN(C(=O)Cc2cc[n+]([O-])cc2)CC1)c1ncccc1CC3` (stereo in doubt; (-)-10b), the figure is greater than 0.19 µM; as for `Cc1c[nH]c2c(Cl)cc3c(c12)[C@@H](C1CCN(C(=O)Cc2cc[n+]([O-])cc2)CC1)c1ncc(Br)cc1CC3`, 0.0026 µM.
